Activity calls are given as the source filed them.
Key:
[1] = test system: HeLa; assay: ATP-based viability loss in HeLa cells – cell-based, CellTiter-Glo luminescence, cherry-pick samples, cytotoxicity control for MITF activator project, dose response (AID 540259); assay type: functional; details: Homo sapiens
[2] = biological target: Beta-2 adrenergic receptor (Homo sapiens, UniProt P07550); assay: ADRB2 activation measured by internalization – cell-based, FAP fluorogen, flow cytometry, cherry pick 1, dose response (AID 588763); assay type: functional
[3] = cells; assay type: functional
[4] = Luminescence Cell-Based Dose Confirmation HTS to Identify Activators of 5'UTR Stem-Loop Driven Alpha-Synuclein mRNA Translation in H4 Neuroglioblastoma Cells. [Related pubchem assays: 1829 (Project Summary), 1814 (Primary HTS)]; assay type: functional
[5] = test system: H4; assay: Luminescence Cell-Based Dose Response HTS to Identify Activators of 5'UTR Stem-Loop Driven Prion Protein mRNA Translation in H4 Neuroglioblastoma Cells. [Related pubchem assays: 1829 (Project Summary), 1814 (Primary HTS)]; assay type: functional; details: Homo sapiens
[6] = test system: Vero; assay: cells; assay type: functional; details: Chlorocebus sabaeus
[7] = test system: Vero; assay: cells; assay type: functional, cell-based; details: Chlorocebus sabaeus
[8] = Luminescence Cell-Based Dose Response HTS to Identify Activators of Luciferase Translation or Activity in H4 […] Cells. [Related pubchem assays: 1829 (Project Summary), 1814 (Primary HTS)]; assay type: functional
[9] = biological target: Glucose-6-phosphate 1-dehydrogenase (Homo sapiens, UniProt P11413); assay: inhibition of Homo sapiens G6PD, dose series – biochemical, fluorescence, selectivity assay for P. falciparum G6PD inhibitor project, dose response (AID 504792); assay type: functional
[10] = luciferase reporter signal suppression in cells – H4 neuroglioma cells, luminescence, dose response (AID 1990); assay type: functional, cell-based
[11] = test system: BJ; assay: BJ-TERT fibroblast viability loss – cell-based, RAS-independent, luminescence, dose response (AID 1933); assay type: functional; details: Homo sapiens
[12] = test system: BJ; assay: BJ-TERT-LT-ST fibroblast viability loss – cell-based, RAS-independent, luminescence, dose response (AID 1935); assay type: functional; details: Homo sapiens;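 further: BJ fibroblasts immortalized with TERT plus LT and ST oncogenes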
[13] = Luminescence Cell-Based Dose Response HTS to Identify Inhibitors of 5'UTR Stem-Loop Driven Prion Protein mRNA Translation in H4 Neuroglioblastoma Cells. [Related pubchem assays: 1827 (Project Summary), 1813 (Primary HTS)]; assay type: functional
[14] = DRD fibroblast viability loss – cell-based, non-viral oncogenic, luminescence, dose response (AID 1934); assay type: functional; details: Homo sapiens
[15] = test system: BJ; assay: cells; assay type: functional, cell-based; details: Homo sapiens
[16] = reduction of Shn3 3'UTR-driven luciferase in osteoblasts – cell-based, Clone20 osteoblasts, firefly luciferase, cherry-picked, dose response (AID 624132); assay type: functional;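 further: firefly luciferase luminescence from reporter carrying the Shn3 3'UTR in osteoblasts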
[17] = non-specific 3'UTR reporter inhibition in Clone20-Shn3RL – cell-based, Renilla luciferase, cherry-picked, counter-screen for Shn3 inhibitor project, dose response (AID 624133); assay type: functional
[18] = viability of HCT116 lacking mutant beta-catenin – cell-based, human colon tumor, dose response (AID 1045); assay type: functional;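 further: HCT116 colon tumor cells with beta catenin knocked out; cells exposed to compound for 60 hours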
[19] = test system: HEK293; assay: cells; details: Homo sapiens
[20] = loss of viability in HepG2 cells – cell-based, CellTiter-Glo, cherry-picked, cytotoxicity control for Shn3 inhibitor project, dose response (AID 624134); assay type: functional
[21] = viability of PTEN-deleted HCT116 cells – cell-based, HCT116 PTEN knockout, dose response (AID 1047); assay type: functional;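 further: HCT116 colon tumor cells with PTEN knocked out; cells exposed to compound for 60 hours before readout; potency for loss of cell viability measured by luminescence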
[22] = biological target: Heat shock protein HSP 90-alpha (Homo sapiens, UniProt P07900); assay type: functional, organism-based
[23] = biological target: Luciferin 4-monooxygenase (Photinus pyralis, UniProt P08659); assay: inhibition of purified Photinus pyralis luciferase – biochemical, luminescence, dose response (AID 1891)
[24] = test system: HEK293; assay: cells; details: Homo sapiens; remark: listed apart in the source
[25] = biological target: T1, Voltage-gated N-type calcium channel alpha-1B subunit/Amyloid beta A4 precursor protein-binding family A member 1 (Homo sapiens, UniProt Q00975+Q02410); assay type: protein assay
[26] = biological target: T1, Voltage-gated N-type calcium channel alpha-1B subunit/Amyloid beta A4 precursor protein-binding family A member 1; assay type: protein assay; remark: listed apart in the source
[27] = Luminescence Cell-Based Dose Confirmation HTS to Identify Inhibitors of Platelet Dense Granule Release. [Related pubchem assays: 1663 (Primary HTS), 1678 (Summary of Project)]; assay type: functional
[28] = viability of uninfected HEp-2 cells – cell-based, HTS, cytotoxicity control for RSV inhibitor project, dose response (AID 2410); assay type: functional; details: human respiratory syncytial virus
[29] = biological target: T2, Short transient receptor potential channel 4 (Mus musculus, UniProt Q9QUQ5); assay: block of DAMGO-driven TRPC4 calcium entry – cell-based, HEK293 TRPC4/mu-opioid, Fluo-4 calcium, dose response (AID 434942); assay type: functional;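 further: potency of inhibitors blocking the TRPC4 calcium response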
T2 sequence (Q9QUQ5 whole entry): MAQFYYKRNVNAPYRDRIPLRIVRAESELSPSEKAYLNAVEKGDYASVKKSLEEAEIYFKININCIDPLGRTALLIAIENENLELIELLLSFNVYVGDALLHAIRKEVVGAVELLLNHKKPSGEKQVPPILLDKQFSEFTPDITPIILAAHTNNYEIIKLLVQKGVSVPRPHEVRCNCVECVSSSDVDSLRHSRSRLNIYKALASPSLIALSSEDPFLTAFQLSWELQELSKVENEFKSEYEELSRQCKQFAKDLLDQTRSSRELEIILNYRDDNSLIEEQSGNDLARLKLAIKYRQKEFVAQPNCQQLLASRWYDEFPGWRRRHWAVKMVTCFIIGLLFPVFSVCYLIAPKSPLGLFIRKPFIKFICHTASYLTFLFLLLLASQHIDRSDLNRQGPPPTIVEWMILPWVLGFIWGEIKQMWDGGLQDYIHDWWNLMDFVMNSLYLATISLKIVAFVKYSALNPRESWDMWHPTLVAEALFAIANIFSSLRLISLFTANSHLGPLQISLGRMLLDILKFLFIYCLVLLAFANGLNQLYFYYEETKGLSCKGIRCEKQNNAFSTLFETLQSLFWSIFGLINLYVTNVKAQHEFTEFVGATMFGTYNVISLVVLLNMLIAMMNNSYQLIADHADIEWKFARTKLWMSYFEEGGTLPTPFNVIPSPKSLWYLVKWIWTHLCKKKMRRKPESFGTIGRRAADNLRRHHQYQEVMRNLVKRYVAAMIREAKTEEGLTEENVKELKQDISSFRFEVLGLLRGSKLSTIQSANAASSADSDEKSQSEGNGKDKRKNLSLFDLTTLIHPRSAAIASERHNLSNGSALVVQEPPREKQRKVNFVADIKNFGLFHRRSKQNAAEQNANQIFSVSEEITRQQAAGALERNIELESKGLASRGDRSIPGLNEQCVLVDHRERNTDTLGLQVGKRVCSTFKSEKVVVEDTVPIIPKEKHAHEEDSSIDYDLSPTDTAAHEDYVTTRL

[30] = biological target: T3, Protein skinhead-1 (Caenorhabditis elegans, UniProt P34707); assay type: functional
T3 sequence (P34707 whole entry): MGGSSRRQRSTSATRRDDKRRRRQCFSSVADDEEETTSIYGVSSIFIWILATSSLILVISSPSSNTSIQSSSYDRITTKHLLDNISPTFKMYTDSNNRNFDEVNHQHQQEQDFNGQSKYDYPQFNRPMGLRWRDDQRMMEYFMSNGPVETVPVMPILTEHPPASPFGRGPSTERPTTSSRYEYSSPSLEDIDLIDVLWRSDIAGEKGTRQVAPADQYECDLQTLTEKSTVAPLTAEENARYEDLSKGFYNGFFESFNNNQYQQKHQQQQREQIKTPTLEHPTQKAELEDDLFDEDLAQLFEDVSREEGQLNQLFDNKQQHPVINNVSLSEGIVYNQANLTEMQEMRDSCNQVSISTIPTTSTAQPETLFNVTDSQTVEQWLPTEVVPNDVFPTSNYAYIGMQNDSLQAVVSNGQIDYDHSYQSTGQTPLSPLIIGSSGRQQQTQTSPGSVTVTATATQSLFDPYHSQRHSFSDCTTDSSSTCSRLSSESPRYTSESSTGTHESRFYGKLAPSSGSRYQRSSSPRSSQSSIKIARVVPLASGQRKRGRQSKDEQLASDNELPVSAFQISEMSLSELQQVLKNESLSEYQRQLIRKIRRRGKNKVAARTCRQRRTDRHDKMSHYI

[31] = Luminescence Cell-Based Dose Retest to Confirm Inhibitors of Cancer Stem Cells. [Related pubchem assays (depositor defined):AID2717, AID2721]; assay type: functional; details: Homo sapiens
[32] = biological target: T4, 1-acylglycerol-3-phosphate O-acyltransferase ABHD5/Perilipin-5 (Homo sapiens, UniProt Q00G26+Q8WTS1); assay: Luminescence-based biochemical high throughput dose response assay for inhibitors of the interaction of the lipase co-activator protein, abhydrolase domain containing 5 (ABHD5) with perilipin-5 (MLDP; PLIN5) (2K validation set). [Related pubchem assays (depositor defined):AID493035, AID493241]
T4 sequence (Q00G26 whole entry): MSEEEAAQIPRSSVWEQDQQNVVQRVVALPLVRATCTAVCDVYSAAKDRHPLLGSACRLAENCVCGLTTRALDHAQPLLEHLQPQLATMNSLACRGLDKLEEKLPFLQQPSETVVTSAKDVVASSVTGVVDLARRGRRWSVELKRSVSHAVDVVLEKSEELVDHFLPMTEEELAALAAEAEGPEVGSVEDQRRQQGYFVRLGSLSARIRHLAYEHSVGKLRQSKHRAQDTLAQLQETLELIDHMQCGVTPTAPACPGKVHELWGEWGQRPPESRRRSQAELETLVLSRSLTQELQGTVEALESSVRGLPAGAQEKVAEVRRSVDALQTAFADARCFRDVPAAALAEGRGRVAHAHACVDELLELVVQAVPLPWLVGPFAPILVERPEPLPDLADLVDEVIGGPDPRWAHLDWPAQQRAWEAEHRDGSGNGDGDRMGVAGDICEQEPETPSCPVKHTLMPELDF
T4 sequence (Q8WTS1 whole entry): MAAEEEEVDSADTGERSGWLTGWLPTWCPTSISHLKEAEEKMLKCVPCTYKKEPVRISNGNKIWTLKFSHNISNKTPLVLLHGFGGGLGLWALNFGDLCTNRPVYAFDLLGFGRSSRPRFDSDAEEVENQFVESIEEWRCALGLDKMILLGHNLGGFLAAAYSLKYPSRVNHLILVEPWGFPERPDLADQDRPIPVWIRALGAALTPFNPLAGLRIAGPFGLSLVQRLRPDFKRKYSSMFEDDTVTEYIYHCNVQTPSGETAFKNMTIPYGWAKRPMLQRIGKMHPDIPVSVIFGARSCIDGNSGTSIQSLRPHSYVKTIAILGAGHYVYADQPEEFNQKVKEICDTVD

[33] = biological target: T5, Perilipin-1/ABHD5 (Homo sapiens, UniProt O60240+Q8WTS1); assay: Luminescence-based biochemical high throughput dose response assay for inhibitors of the interaction of the lipase co-activator protein, abhydrolase domain containing 5 (ABHD5) with perilipin-1 (PLIN1) (2K validation set). [Related pubchem assays (depositor defined):AID493027, AID493057]
T5 sequence (Q8WTS1 whole entry): T4 sequence (Q8WTS1 whole entry)
T5 sequence (O60240 whole entry): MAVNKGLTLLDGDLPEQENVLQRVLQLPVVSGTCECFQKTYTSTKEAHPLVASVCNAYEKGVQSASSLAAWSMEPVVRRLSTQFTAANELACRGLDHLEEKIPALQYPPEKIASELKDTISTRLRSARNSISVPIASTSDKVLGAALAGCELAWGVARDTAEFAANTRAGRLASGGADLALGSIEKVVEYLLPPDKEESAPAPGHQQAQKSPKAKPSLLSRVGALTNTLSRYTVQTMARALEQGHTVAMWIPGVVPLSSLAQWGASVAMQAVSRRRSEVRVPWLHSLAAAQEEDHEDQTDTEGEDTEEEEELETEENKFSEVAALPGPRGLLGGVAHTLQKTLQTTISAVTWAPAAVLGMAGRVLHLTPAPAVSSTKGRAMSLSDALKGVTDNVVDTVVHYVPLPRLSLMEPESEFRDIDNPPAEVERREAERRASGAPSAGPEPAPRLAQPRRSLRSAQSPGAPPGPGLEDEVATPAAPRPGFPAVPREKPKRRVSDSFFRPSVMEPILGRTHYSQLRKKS

Sequence of Beta-2 adrenergic receptor (P07550 whole entry): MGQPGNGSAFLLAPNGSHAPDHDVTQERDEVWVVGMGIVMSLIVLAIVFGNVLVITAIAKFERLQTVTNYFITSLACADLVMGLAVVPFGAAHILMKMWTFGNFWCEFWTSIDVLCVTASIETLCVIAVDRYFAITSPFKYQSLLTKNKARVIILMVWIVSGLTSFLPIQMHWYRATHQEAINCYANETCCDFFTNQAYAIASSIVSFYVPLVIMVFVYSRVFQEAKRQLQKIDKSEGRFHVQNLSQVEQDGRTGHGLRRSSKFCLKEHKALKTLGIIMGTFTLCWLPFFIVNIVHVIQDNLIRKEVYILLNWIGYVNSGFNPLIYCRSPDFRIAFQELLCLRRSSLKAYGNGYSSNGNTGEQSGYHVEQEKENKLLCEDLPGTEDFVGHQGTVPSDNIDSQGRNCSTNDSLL
T1 sequence (Q00975 whole entry): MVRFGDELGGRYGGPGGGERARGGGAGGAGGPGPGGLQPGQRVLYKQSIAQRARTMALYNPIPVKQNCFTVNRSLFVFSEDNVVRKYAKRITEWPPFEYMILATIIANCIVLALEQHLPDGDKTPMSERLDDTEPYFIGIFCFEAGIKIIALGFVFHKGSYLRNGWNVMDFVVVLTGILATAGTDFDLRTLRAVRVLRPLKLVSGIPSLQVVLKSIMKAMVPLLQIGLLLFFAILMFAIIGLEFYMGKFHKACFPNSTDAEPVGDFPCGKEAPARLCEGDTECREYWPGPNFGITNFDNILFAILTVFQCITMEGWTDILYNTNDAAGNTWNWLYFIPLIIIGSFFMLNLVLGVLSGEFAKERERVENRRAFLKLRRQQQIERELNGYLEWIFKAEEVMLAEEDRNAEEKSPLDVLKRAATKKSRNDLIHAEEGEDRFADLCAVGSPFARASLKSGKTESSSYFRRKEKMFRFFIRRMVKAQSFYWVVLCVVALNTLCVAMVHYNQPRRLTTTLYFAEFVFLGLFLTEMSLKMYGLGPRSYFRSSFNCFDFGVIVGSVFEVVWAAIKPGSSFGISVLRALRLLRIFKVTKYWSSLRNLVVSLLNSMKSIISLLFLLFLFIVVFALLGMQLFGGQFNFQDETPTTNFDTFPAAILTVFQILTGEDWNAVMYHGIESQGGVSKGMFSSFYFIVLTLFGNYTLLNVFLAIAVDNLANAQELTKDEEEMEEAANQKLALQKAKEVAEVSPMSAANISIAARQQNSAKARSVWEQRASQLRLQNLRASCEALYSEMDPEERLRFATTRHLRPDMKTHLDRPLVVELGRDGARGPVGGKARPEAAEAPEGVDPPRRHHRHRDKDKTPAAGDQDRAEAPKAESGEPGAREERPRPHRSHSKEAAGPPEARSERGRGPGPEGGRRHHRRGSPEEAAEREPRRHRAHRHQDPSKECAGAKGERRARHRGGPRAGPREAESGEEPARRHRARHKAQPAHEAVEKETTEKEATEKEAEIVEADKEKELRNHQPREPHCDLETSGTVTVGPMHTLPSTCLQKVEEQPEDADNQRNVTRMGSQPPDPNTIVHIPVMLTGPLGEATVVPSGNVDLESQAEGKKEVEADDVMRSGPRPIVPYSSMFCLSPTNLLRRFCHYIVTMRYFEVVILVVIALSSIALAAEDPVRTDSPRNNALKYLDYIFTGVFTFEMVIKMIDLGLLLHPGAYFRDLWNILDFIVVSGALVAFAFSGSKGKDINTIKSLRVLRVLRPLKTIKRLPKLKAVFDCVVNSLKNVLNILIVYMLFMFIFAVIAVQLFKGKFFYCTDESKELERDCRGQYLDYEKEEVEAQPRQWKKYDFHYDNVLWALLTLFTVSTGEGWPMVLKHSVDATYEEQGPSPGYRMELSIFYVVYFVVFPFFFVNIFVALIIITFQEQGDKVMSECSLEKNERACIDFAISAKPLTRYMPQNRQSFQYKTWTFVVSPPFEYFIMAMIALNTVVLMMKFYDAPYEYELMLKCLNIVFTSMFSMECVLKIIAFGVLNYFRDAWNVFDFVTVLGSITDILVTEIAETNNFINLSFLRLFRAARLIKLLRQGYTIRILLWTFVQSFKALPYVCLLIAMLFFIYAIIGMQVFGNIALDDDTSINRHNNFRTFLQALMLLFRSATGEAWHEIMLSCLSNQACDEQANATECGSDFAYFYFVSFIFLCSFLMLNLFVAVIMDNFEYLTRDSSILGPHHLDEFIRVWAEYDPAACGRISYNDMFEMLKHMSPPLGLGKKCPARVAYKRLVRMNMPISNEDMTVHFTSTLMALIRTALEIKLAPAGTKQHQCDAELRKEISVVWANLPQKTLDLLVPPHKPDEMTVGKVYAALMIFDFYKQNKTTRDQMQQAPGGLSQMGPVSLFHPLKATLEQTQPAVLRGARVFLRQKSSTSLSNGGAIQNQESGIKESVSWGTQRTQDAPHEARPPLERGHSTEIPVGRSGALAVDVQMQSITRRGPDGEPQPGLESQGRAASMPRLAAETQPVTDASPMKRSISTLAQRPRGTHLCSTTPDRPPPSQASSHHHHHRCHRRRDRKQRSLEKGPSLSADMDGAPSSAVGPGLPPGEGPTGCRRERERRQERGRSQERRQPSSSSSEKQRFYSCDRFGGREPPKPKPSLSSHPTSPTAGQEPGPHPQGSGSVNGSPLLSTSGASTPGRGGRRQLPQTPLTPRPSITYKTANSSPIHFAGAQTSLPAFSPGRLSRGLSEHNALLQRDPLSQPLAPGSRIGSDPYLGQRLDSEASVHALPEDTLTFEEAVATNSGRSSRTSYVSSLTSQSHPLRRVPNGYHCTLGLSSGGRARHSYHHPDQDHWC
T1 sequence (Q02410 whole entry): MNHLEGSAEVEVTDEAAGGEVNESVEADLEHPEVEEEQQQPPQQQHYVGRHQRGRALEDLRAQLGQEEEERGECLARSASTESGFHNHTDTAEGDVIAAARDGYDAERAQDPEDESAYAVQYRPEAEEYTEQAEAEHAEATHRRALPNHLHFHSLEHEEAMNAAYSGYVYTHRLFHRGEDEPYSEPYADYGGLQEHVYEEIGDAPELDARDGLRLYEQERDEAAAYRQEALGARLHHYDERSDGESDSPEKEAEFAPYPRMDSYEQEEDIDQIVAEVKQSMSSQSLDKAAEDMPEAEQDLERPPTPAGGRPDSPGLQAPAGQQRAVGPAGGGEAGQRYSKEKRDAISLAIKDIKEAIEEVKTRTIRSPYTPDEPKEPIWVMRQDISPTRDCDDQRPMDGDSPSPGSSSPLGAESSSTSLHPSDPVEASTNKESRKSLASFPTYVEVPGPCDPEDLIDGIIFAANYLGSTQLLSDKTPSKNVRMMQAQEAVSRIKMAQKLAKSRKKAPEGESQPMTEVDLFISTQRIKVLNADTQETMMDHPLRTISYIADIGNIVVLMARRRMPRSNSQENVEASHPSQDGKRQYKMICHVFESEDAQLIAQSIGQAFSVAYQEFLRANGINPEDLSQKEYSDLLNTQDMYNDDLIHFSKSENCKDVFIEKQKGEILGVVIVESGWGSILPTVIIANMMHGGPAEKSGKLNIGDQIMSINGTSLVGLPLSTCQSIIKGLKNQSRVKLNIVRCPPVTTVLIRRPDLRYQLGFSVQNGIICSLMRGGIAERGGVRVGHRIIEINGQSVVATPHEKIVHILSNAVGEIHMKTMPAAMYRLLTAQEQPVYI
Sequence of Luciferin 4-monooxygenase (P08659 whole entry): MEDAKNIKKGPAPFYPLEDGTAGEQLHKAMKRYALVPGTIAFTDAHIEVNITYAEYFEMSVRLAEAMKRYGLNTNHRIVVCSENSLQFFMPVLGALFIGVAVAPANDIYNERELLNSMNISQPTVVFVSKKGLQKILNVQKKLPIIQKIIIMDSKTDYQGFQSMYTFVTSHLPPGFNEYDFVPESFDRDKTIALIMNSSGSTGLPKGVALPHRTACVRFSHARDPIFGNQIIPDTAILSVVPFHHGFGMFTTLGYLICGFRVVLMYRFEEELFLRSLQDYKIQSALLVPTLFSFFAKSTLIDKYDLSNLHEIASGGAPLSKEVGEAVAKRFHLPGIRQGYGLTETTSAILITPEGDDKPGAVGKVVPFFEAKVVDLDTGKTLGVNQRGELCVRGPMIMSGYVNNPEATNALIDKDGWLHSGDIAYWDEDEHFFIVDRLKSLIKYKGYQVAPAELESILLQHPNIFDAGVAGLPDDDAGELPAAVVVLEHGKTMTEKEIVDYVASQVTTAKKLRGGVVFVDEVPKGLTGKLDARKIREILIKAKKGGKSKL
Sequence of Glucose-6-phosphate 1-dehydrogenase (P11413 whole entry): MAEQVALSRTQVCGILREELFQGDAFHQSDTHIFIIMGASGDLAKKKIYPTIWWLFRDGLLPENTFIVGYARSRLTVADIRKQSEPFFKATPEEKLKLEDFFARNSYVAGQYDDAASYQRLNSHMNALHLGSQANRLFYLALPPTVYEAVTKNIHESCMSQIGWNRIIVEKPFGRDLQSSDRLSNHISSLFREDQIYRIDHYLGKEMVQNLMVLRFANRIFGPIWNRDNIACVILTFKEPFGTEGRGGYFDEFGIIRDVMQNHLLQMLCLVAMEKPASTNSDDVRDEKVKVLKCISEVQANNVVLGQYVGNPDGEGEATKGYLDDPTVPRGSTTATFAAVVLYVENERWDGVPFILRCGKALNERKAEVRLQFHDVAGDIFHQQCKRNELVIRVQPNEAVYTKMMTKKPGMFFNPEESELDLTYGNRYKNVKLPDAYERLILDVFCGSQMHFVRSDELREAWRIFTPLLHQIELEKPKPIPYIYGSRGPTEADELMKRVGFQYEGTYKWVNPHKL

O=C(NCCC1=CCCCC1)c1ccc(-n2cncn2)cc1
AC50 [1]: > 350 µM (inactive)

Cc1cc(C)c2c(N)c(-c3nnc(SCc4ccc(Cl)cc4)n3C)sc2n1
EC50 [2]: 0.252 µM (active)

COc1cccc(OCc2nnc(-c3cccs3)o2)c1
EC50 [2]: 10.7 µM (inactive)
IC50 [3]: 5.57 µM (active)

O=C(c1ccc(Cl)cc1)C(CN1CCCC1)c1ccccc1 (centres undefined)
EC50 [4]: > 120 µM (not active)
EC50 [5]: > 120 µM (not active)
CC50 [6]: 23 µM (active)
IC50 [7]: > 25 µM (active)
EC50 [8]: > 120 µM (not active)

CCc1nnc(NC(=O)c2ccc(Cl)nc2)s1
IC50 [9]: > 80 µM (inactive)

Cc1ccc(Nc2ncnc3ccccc23)cc1
AC50 [1]: 154 µM (active)

CC(C)c1ccc(NC(=O)[C@H](Cc2c[nH]c3ccccc23)NC(=O)[C@@H]2Cc3ccccc3CN2)cc1
EC50 [10]: > 120 µM (not active)
EC50 [11]: > 150 µM (not active)
EC50 [12]: > 150 µM (not active)
EC50 [13]: 20.1 µM (active)
EC50 [14]: 119 µM (active)
CC50 [6]: 23.5 µM (active)
IC50 [7]: 5.06 µM (active)
EC50 [15]: 70.9 µM (active)

Cc1ccc(NN2C(=O)C=C(c3ccc(Cl)cc3)C2=O)cc1
AC50 [16]: 6.53 µM (active)
AC50 [17]: 12.6 µM (active)
EC50 [18]: 24.1 µM (active)
EC50 [19]: > 59.6 µM (inactive)
AC50 [20]: 19.8 µM (active)
EC50 [21]: 19.9 µM (active)
AC50 [22]: < 0.195 µM (active)
EC50 [23]: > 112 µM (not active)
EC50 [24]: > 59.6 µM (inactive)
IC50 [25]: 11 µM (active)
IC50 [26]: > 50 µM (inactive)
EC50 [27]: 9.18 µM (active)
CC50 [28]: 10.8 µM (active)

Cn1cccc1C(=O)C(=O)Nc1ccc(F)c(F)c1
AC50 [1]: 72.6 µM (active)

COCCn1c(SCC(=O)Nc2ccccc2OC)nc2c3ccccc3nc-2c1O
EC50 [19]: > 59.6 µM (inactive)
EC50 [29]: 3.76 µM (active)
EC50 [24]: > 59.6 µM (inactive)

O=C(/C=C/c1ccccc1)/C=C/c1ccccc1
IC50 [30]: 11.6 µM (active)
AC50 [31]: 1.42 µM (active)
EC50 [18]: 0.953 µM (active)
EC50 [21]: 1.22 µM (active)
IC50 [32]: 1.48 µM (active)
CC50 [6]: 19.1 µM (active)
IC50 [7]: > 25 µM (active)
IC50 [33]: 1.52 µM (active)
